From US20240391870A1 (Arcturus Therapeutics, Inc., priority 2023, published 2024)

Assays:
[1] = In vivo biodegradability assay (lipid in liver); details: Table 2, mouse liver, 48 h
hEPO = hEPO mRNA expression evaluation (hEPO-LNPs); assay type: in vivo, Balb/c mice; details: Table 2; 0.1 mpk i.v., serum hEPO after 6 hr
Experimental: Protocol for hEPO mRNA Expression Evaluation
Lipid formulations comprising a hEPO mRNA below were evaluated for their ability to express hEPO in vivo according to the protocol of this example. All animal experiments were conducted using institutionally-approved protocols (IACUC). In this protocol, female Balb/c mice at least 6-8 weeks of age were purchased from Charles River Laboratory. […] After 6 hr, blood was collected with serum separation tubes, and the serum was isolated by centrifugation. Serum hEPO levels were then measured using an ELISA assay (Human Erythropoietin Quantikine IVD ELISA Kit, R&D Systems, Minneapolis, MD).

Mouse plasma stability = assay type: in vitro ADME, CD-1 mouse; details: Table 2, mouse plasma 37 C, 1 uM lipid
Experimental: Lipid stock solution was prepared by dissolution of the lipid in isopropanol at the concentration of 5 mg/mL. A requisite volume of the lipid-isopropanol solution was then diluted to 100 μM concentration at a total volume of 1.0 mL with in 50:50 (v/v) ethanol/water. Ten microliters of this 100 μM solution was spiked into 1.0 mL of mouse plasma (BioIVT, Cat. No.: MSE00PLNHUNN, CD-1 mouse, anticoagulant: sodium heparin, not filtered) that was pre-warmed to 37° C. and was stirred at 50 rpm with a magnetic stir bar. The starting concentration of lipids in plasma was thus 1 μM. At time points 0, 15, 30, 45, 60 and 120 min, 0.1 mL of the plasma was withdrawn from the reaction mixture and the protein was precipitated by adding 0.9 mL of ice-cold 4:1 (v/v) acetonitrile/methanol with 1 μg/mL of a selected internal standard lipid added. After filtration through a 0.45 micron 96-well filtering plate, the filtrates were analyzed by LC-MS (Thermo Fisher's Vanquish UHPLC—LTQ XL linear ion trap Mass Spectrometer); Waters XBridge BEH Shield RP18 2.5 micron (2.1×100 mm) column with its matching guard column. Mobile phase A was 0.1% formic acid in water, and mobile phase B was 0.1% formic acid in 1:1 (v/v) acetonitrile/methanol. Flow rate was 0.5 ml/min. Elution gradient was: Time 0-1 min: 10% B; 1-6 min: 10%-95% B; 6-8.5 min: 95% B; 8.5-9 min: 95%-10% B; 9-10 min: 10% B. Mass spectrometry was in positive scanning mode from 600-1100 m/z. The peak of the molecular ion of the lipids was integrated in the extracted ion chromatography (XIC) using Xcalibur software (Thermo Fisher). The relative peak area compared to T=0, after normalization by the peak area of the internal standard, was used as the percentage of the lipid remaining at each time point. T1/2 values were calculated using the first-order decay model.

factor VII = test: Factor VII knock down evaluation (LNP with FVII siRNA); assay type: in vivo, Balb/C mice; details: Table 2, plasma FVII after 48 h vs saline control; for FVII KD % 0.01 mpk: 0.01 mpk i.v.; for FVII KD % 0.03 mpk: 0.03 mpk i.v.
Experimental: Lipid formulations comprising a FVII siRNA further described below were evaluated for their knockdown activity using the protocol of this example. In the FVII evaluation, seven to eight week-old, female Balb/C mice were purchased from Charles River Laboratories (Hollister, CA). The mice were held in a pathogen-free environment and all procedures involving the mice were performed in accordance with guidelines established by the Institutional Animal Care and Use Committee (IACUC). Lipid nanoparticles containing factor VII siRNA were administered intravenously at a dosing volume of 10 mL/kg and two dose levels (0.03 and 0.01 mg/kg). After 48 h, the mice were anesthetized with isoflurane and blood was collected retro-orbitally into Microtainer® tubes coated with 0.109 M sodium citrate buffer (BD Biosciences, San Diego, CA) and processed to plasma. Plasma specimens were tested for factor VII levels immediately or stored at −80° C. for later analysis. Measurement of FVII protein in plasma was determined using the colorimetric Biophen VII assay kit (Aniara Diagnostica, USA). Absorbance was measured at 405 nm and a calibration curve was generated using the serially diluted control plasma to determine levels of factor VII in plasma from treated animals, relative to the saline-treated control animals.

Compound | In vivo degradability (ng/tissue) at 48h 0.03 mpk [1] | In vivo degradability (ng/tissue) at 48h 0.1 mpk [1] | Percent remaining in mouse plasma after 2 h (Mouse plasma stability) [%] | EPO exprssn (ng/mL) 0.1 mpk (hEPO) [ng/mL] | FVII KD % 0.01 mpk (factor VII) [%] | FVII KD % 0.03 mpk (factor VII) [%]
CCC1CCC(C(=O)OCC(C)(COC(=O)CCN(CCC(=O)OCC(C)(COC(=O)C2CCC(CC)CC2)COC(=O)C2CCC(CC)CC2)C(=O)SCCCN(C)C)COC(=O)C2CCC(CC)CC2)CC1 (stereo not drawn) [LIPID 22] | <340 ng/tissue | <340 ng/tissue | 100 | 1104 | 56 | 87
Cc1ccc(CCC(C)C(=O)OCC(COC(=O)C(C)CCc2ccc(C)cc2)OC(=O)CCCN(CCCC(=O)OC(COC(=O)C(C)CCc2ccc(C)cc2)COC(=O)C(C)CCc2ccc(C)cc2)C(=O)SCCCN(C)C)cc1 (stereo not drawn) [LIPID 41, ((4,4′-((((3-(dimethylamino)propyl)thio)carbonyl)azanediyl)bis (butanoyl))bis(oxy))bis(propane-2,1,3-triyl)tetrakis(2-methyl-4-(p-tolyl)butanoate)] |  |  |  | 1209 | 56 | 76
CN(C)CCCSC(=O)N(CCCC(=O)OC(COC(=O)C1CC2CCCCC2C1)COC(=O)C1CC2CCCCC2C1)CCCC(=O)OC(COC(=O)C1CC2CCCCC2C1)COC(=O)C1CC2CCCCC2C1 (stereo not drawn) [LIPID 28] | BLOQ | BLOQ | 100 | 216 | 26 | 75.3
CCCCCCCCC(=O)OCC(COC(=O)CCCCCCCC)COC(=O)CCCN(CCCC(=O)OCC(COC(=O)CCCCCCCC)COC(=O)CCCCCCCC)C(=O)SCCCN(C)C [LIPID 25] | BLOQ | BLOQ | 100 | 2945 | 63 | 95
CC1CCC(CCC(=O)OCC(COC(=O)CCC2CCC(C)CC2)COC(=O)CCN(CCC(=O)OCC(COC(=O)CCC2CCC(C)CC2)COC(=O)CCC2CCC(C)CC2)C(=O)SCCCN(C)C)CC1 (stereo not drawn) [LIPID 27] | BLOQ | BLOQ | 100 | 69 | 48.1 | 84.9
CCCCCCCCC(=O)OCC(COC(=O)CCCCCCCC)COC(=O)CCN(CCC(=O)OCC(COC(=O)CCCCCCCC)COC(=O)CCCCCCCC)C(=O)SCCN(C)C [LIPID 26] | BLOQ | BLOQ | 100 | 70 | 8 | 50
CN(C)CCCSC(=O)N(CCCC(=O)OC(COC(=O)C1CCC2CCCC2C1)COC(=O)C1CCC2CCCC2C1)CCCC(=O)OC(COC(=O)C1CCC2CCCC2C1)COC(=O)C1CCC2CCCC2C1 (stereo not drawn) [LIPID 30, ((4,4′-((((3-(dimethylamino)propyl)thio)carbonyl)azanediyl)bis (butanoyl))bis(oxy))bis(propane-2,1,3-triyl)tetrakis(octahydro-1H-indene-5-carboxylate)] | BLOQ | BLOQ | 100 | 95 | 3.2 | 62.1
CCCCCCC(C)C(=O)OCC(COC(=O)C(C)CCCCCC)OC(=O)CCCN(CCCC(=O)OC(COC(=O)C(C)CCCCCC)COC(=O)C(C)CCCCCC)C(=O)NCCCN(C)C (stereo not drawn) [LIPID 36, [2-[4-[3-(dimethylamino)propylcarbamoyl-[4-[2-(2-methyloctanoyloxy)-1-(2-methyloctanoyloxymethyl)ethoxy]-4-oxo-butyl]amino]butanoyloxy]-3-(2-methyloctanoyloxy)propyl]2-methyloctanoate] |  |  |  | 0 | 0 | 0
CCCCCCC(C)C(=O)OCC(COC(=O)C(C)CCCCCC)OC(=O)CCCN(CCCC(=O)OC(COC(=O)C(C)CCCCCC)COC(=O)C(C)CCCCCC)C(=O)OCCCN(C)C (stereo not drawn) [LIPID 35, [2-[4-[3-(dimethylamino)propoxycarbonyl-[4-[2-(2-methyloctanoyloxy)-1-(2-methyloctanoyloxymethyl)ethoxy]-4-oxo-butyl]amino]butanoyloxy]-3-(2-methyloctanoyloxy)propyl]2-methyloctanoate] |  |  |  | 678 | 68.5 | 84

Second part, led by results:

In vivo degradability (ng/tissue) at 48h 0.03 mpk [1] | In vivo degradability (ng/tissue) at 48h 0.1 mpk [1] | Percent remaining in mouse plasma after 2 h (Mouse plasma stability) [%] | Compound | EPO exprssn (ng/mL) 0.1 mpk (hEPO) [ng/mL] | FVII KD % 0.01 mpk (factor VII) [%] | FVII KD % 0.03 mpk (factor VII) [%]
BLOQ | BLOQ | 100 | CCCCCCCC(=O)OCC(C)(COC(=O)CCCCCCC)COC(=O)CCN(CCC(=O)OCC(C)(COC(=O)CCCCCCC)COC(=O)CCCCCCC)C(=O)SCCCN(C)C [LIPID 24] | 1420 | 60.5 | 87.4
<340 ng/tissue | <340 ng/tissue | 100 | CC1CCC(CC(=O)OCC(C)(COC(=O)CCN(CCC(=O)OCC(C)(COC(=O)CC2CCC(C)CC2)COC(=O)CC2CCC(C)CC2)C(=O)SCCCN(C)C)COC(=O)CC2CCC(C)CC2)CC1 (stereo not drawn) [LIPID 21] | 1028 | 57 | 90
<340 ng/tissue | <340 ng/tissue | 100 | CC1CCC(CCC(=O)OCC(C)(COC(=O)CCC2CCC(C)CC2)COC(=O)CCN(CCC(=O)OCC(C)(COC(=O)CCC2CCC(C)CC2)COC(=O)CCC2CCC(C)CC2)C(=O)SCCCN(C)C)CC1 (stereo not drawn) [LIPID 20] | 1148 | 36 | 74
<340 ng/tissue | <340 ng/tissue | 100 | CCCCC(C)(C)CC(=O)OCC(C)(COC(=O)CCN(CCC(=O)OCC(C)(COC(=O)CC(C)(C)CCCC)COC(=O)CC(C)(C)CCCC)C(=O)SCCCN(C)C)COC(=O)CC(C)(C)CCCC [LIPID 23] | 730 | 17 | 61.7
